From ChEMBL document CHEMBL5321208, “The effect of side chain variations on quinazoline-pyrimidine G-quadruplex DNA ligands” (Eur J Med Chem, 2023)
Active and inactive are the calls of the source. The rule behind the calls is not given here.

The compounds below were run on dsDNA (assay: Binding affinity to double stranded DNA (unknown origin) assessed as thermal stabilization at 1 to 8 uM measured at 10 to 95 degreeC by FRET analysis). Details: dose 1-8 µM.
Assay type: nucleic-acid assay

Structure (SMILES)	Activity
CCN(CC)CCNc1cc(C)nc(Nc2nc(C)c3ccc4c(c3n2)CCCC4)n1	inactive
CCOC(=O)CCN1CCN(c2cc(C)nc(Nc3nc(C)c4ccc5c(c4n3)CCC5)n2)CC1	inactive
Cc1cc(N2CCN(C)CC2)nc(Nc2nc(C)c3ccc4c(c3n2)CCCC4)n1	inactive
Cc1cc(N2CCN(C(=O)OC(C)(C)C)CC2)nc(Nc2nc(C)c3ccc4c(c3n2)CCC4)n1	inactive
Cc1cc(N2CCN(c3ncccn3)CC2)nc(Nc2nc(C)c3ccc4c(c3n2)CCC4)n1	inactive
Cc1cc(N(C)C)nc(Nc2nc(C)c3ccc4c(c3n2)CCCC4)n1	inactive
Cc1cc(N2CCOCC2)nc(Nc2nc(C)c3ccc4c(c3n2)CCC4)n1	inactive
CCN(CC)c1cc(C)nc(Nc2nc(C)c3ccc4c(c3n2)CCC4)n1	inactive
CCN(CC)c1cc(C)nc(Nc2nc(C)c3ccc4c(c3n2)CCCC4)n1	inactive

Continued, values first:

Activity	Structure (SMILES)
inactive	Cc1cc(NCCN2CCN(C)CC2)nc(Nc2nc(C)c3ccc4c(c3n2)CCCC4)n1
inactive	Cc1cc(NCCN2CCNCC2)nc(Nc2nc(C)c3ccc4c(c3n2)CCCC4)n1
inactive	Cc1cc(NCCCN)nc(Nc2nc(C)c3ccc4c(c3n2)CCCC4)n1
inactive	Cc1cc(NCCN2CCOCC2)nc(Nc2nc(C)c3ccc4c(c3n2)CCCC4)n1
inactive	Cc1cc(NCCCN2CCNCC2)nc(Nc2nc(C)c3ccc4c(c3n2)CCCC4)n1

What follows are compounds tested on Quadruplex DNA (assay: Binding affinity to FAM/TAMRA-labelled parallel KRAS G4 DNA (unknown origin) assessed as thermal stabilization at 1 to 8 uM measured at 10 to 95 degreeC by FRET analysis). Details: dose 1-8 µM.
Assay type: nucleic-acid assay

Activity	Structure (SMILES)
inactive	CCOC(=O)CCN1CCN(c2cc(C)nc(Nc3nc(C)c4ccc5c(c4n3)CCC5)n2)CC1
Active	Cc1cc(NCCN2CCN(C)CC2)nc(Nc2nc(C)c3ccc4c(c3n2)CCCC4)n1
inactive	Cc1cc(N2CCN(C(=O)OC(C)(C)C)CC2)nc(Nc2nc(C)c3ccc4c(c3n2)CCC4)n1
inactive	Cc1cc(N2CCN(c3ncccn3)CC2)nc(Nc2nc(C)c3ccc4c(c3n2)CCC4)n1

These compounds were tested on Quadruplex DNA (assay: Binding affinity to FAM/TAMRA-labelled parallel c-MYC Pu24T G4 DNA (unknown origin) assessed as thermal stabilization at 1 to 8 uM measured at 10 to 95 degreeC by FRET analysis). Details: dose 1-8 µM.
Assay type: nucleic-acid assay

Structure (SMILES)	Activity
CCN(CC)CCNc1cc(C)nc(Nc2nc(C)c3ccc4c(c3n2)CCCC4)n1	Active
CCOC(=O)CCN1CCN(c2cc(C)nc(Nc3nc(C)c4ccc5c(c4n3)CCC5)n2)CC1	inactive
CCN(CC)CCCCCNc1cc(C)nc(Nc2nc(C)c3ccc4c(c3n2)CCCC4)n1	Active
Cc1cc(N2CCN(C)CC2)nc(Nc2nc(C)c3ccc4c(c3n2)CCCC4)n1	Active
Cc1cc(N2CCN(C(=O)OC(C)(C)C)CC2)nc(Nc2nc(C)c3ccc4c(c3n2)CCC4)n1	inactive
Cc1cc(N2CCN(c3ncccn3)CC2)nc(Nc2nc(C)c3ccc4c(c3n2)CCC4)n1	inactive
Cc1cc(N(C)C)nc(Nc2nc(C)c3ccc4c(c3n2)CCCC4)n1	Active
CCN(CC)c1cc(C)nc(Nc2nc(C)c3ccc4c(c3n2)CCCC4)n1	Active

Next, values leading:

Activity	Structure (SMILES)
Active	Cc1cc(NCCN2CCN(C)CC2)nc(Nc2nc(C)c3ccc4c(c3n2)CCCC4)n1
Active	Cc1cc(NCCN2CCNCC2)nc(Nc2nc(C)c3ccc4c(c3n2)CCCC4)n1
Active	Cc1cc(NCCCN)nc(Nc2nc(C)c3ccc4c(c3n2)CCCC4)n1
Active	Cc1cc(NCCCN2CCNCC2)nc(Nc2nc(C)c3ccc4c(c3n2)CCCC4)n1
